What was measured:
Septoria tritici = assay: Test G: wheat leaf blotch, preventive spray on wheat seedlings, visual disease rating; details: wheat leaf blotch; 100 = 100% disease control, 0 = no control relative to controls
Septoria nodorum = assay: Test F: Septoria glume blotch, preventive spray on wheat seedlings, visual disease rating; details: Septoria glume blotch; 100 = 100% disease control, 0 = no control relative to controls
Description: (§1) General protocol for preparing test suspensions for Tests A-J: the test compounds were first dissolved in acetone in an amount equal to 3% of the final volume and then suspended at the desired concentration (in ppm) in acetone and purified water (50/50 mix by volume) containing 250 ppm of the surfactant Trem® 014 (polyhydric alcohol esters). The resulting test suspensions were then used in Tests A-J. Spraying a 200 ppm test suspension to the point of run-off on the test plants was the equivalent of a rate of 500 g/ha. Unless otherwise indicated, the rating values indicate a 200 ppm test suspension was used. (An asterisk “*” next to the rating value indicates a 40 ppm test suspension was used.)
The test suspension was sprayed to the point of run-off on wheat seedlings. The following day the seedlings were inoculated with a spore suspension of Septoria nodorum (the causal agent of Septoria glume blotch) and incubated in a saturated atmosphere at 24° C. for 48 h, and then moved to a growth chamber at 20° C. for 6 days, after which time visual disease ratings were made.

Botrytis cinerea = assay: Test B: tomato Botrytis, preventive spray on tomato seedlings, visual disease rating; details: tomato Botrytis; 100 = 100% disease control, 0 = no control relative to controls
[1] = system: Puccinia recondita f. sp. tritici; assay: Test H: wheat leaf rust, curative spray on inoculated wheat seedlings, visual disease rating; details: wheat leaf rust, curative; 100 = 100% disease control, 0 = no control relative to controls
Alternaria solani = assay: Test C: tomato early blight, preventive spray on tomato seedlings, visual disease rating; details: tomato early blight; 100 = 100% disease control, 0 = no control relative to controls
[2] = system: Puccinia recondita f. sp. tritici; assay: Test I: wheat leaf rust, preventive spray on wheat seedlings, visual disease rating; details: wheat leaf rust, preventive; 100 = 100% disease control, 0 = no control relative to controls
Description: as §1
The test suspension was sprayed to the point of run-off on wheat seedlings. The following day the seedlings were inoculated with a spore suspension of Puccinia recondita f. sp. tritici (the causal agent of wheat leaf rust) and incubated in a saturated atmosphere at 20° C. for 24 h, and then moved to a growth chamber at 20° C. for 7 days, after which time visual disease ratings were made
A dash (-) indicates no test results.

[3] = system: Erysiphe graminis f sp. tritici; assay: Test J: wheat powdery mildew, preventive spray on wheat seedlings, visual disease rating; details: wheat powdery mildew; 100 = 100% disease control, 0 = no control relative to controls

SMILES	Test G rating (% disease control) (Septoria tritici)	Test F rating (% disease control) (Septoria nodorum)	Test B rating (% disease control) (Botrytis cinerea)	Test H rating (% disease control) [1]	Test C rating (% disease control) (Alternaria solani)	Test I rating (% disease control) [2]	Test J rating (% disease control) [3]
Cc1nn(C)c(Oc2ncc(C(F)(F)F)cc2F)c1-c1ccc(F)cc1Br [compound 260]	0%	0%	0%	0%	0%	0%	0%
Cc1nn(C)c(Oc2ncc(C(F)(F)F)cc2Cl)c1-c1ccc(F)cc1Br [compound 261]	0%	0%	0%	0%	0%	0%	47%
Cc1nn(C)c(Nc2c(F)cc(F)cc2F)c1-c1c(F)cccc1C(F)(F)F [compound 262]	0%	0%	99%	0%	51%	68%	99%
COc1cc(F)c(Nc2c(-c3c(F)cccc3C(F)(F)F)c(C)nn2C)c(F)c1 [compound 263]	100%	0%	100%	0%	98%	98%	100%
Cc1nn(C)c(Nc2ncc(F)cc2F)c1-c1c(F)cccc1C(F)(F)F [compound 264]	92%	0%	100%	0%	98%	99%	98%
COc1ccc(-c2c(C)nn(C)c2Nc2ncc(Cl)cc2Cl)c(Cl)c1 [compound 267]	100%	60%	100%	0%	79%	96%	93%
Cc1nn(C)c(Nc2cnc(Cl)nc2)c1-c1ccc(F)cc1Cl [compound 268]	99%	0%	95%	0%	93%	74%	0%
Cc1ncc(Nc2c(-c3ccc(F)cc3Cl)c(C)nn2C)cn1 [compound 269]	67%	0%	80%	8%	0%	0%	0%
Cc1nn(C)c(Nc2cncnc2)c1-c1ccc(F)cc1Cl [compound 270]	91%	0%	92%	8%	86%	0%	81%
Cc1nn(C)c(Oc2c(F)cc(C#N)cc2F)c1-c1ccccc1Cl [compound 271]	100%	99%	100%	0%	99%	99%	98%
Cc1nn(C)c(Oc2c(F)cc(C#N)cc2F)c1-c1ccccc1Br [compound 272]	99%	99%	100%	0%	97%	99%	99%
Cc1nn(C)c(Oc2c(F)cc(C#N)cc2F)c1-c1cccc(Cl)c1Cl [compound 273]	72%	0%	0%	0%	0%	27%	43%
Cc1nn(C)c(Oc2c(F)cc(C#N)cc2F)c1-c1cccc(F)c1F [compound 274]	96%	0%	8%	8%	0%	0%	69%
Cc1nn(C)c(Oc2c(F)cc(C#N)cc2F)c1-c1cc(Cl)ccc1Cl [compound 275]	99%	0%	97%	8%	46%	97%	99%
Cc1nn(C)c(Oc2c(F)cc(C#N)cc2F)c1-c1cc(F)ccc1Cl [compound 276]	100%	98%	100%	31%	99%	100%	100%
COc1ccc(Cl)c(-c2c(C)nn(C)c2Oc2c(F)cc(C#N)cc2F)c1 [compound 277]	100%	0%	100%	0%	0%	96%	98%
COc1ccc(F)c(-c2c(C)nn(C)c2Oc2c(F)cc(C#N)cc2F)c1 [compound 278]	99%	0%	99%	0%	0%	82%	100%
Cc1nn(C)c(Nc2ncc(F)cc2F)c1-c1c(F)cccc1Cl [compound 279]	100%	0%	100%	8%	99%	98%	100%
Cc1nn(C)c(Nc2ncc(F)cc2F)c1-c1ccccc1C(F)(F)F [compound 280]	96%	0%	99%	8%	0%	18%	87%
COc1cccc(Nc2c(-c3c(F)cccc3F)c(C)nn2C)c1Cl [compound 289]	99%	0%	100%	0%	0%	96%	97%
Cc1nn(C)c(Nc2c(F)cc(C#N)cc2F)c1-c1ccc(F)cc1F [compound 290]	100%	87%	100%	0%	99%	100%	100%
Cc1nn(C)c(Nc2cc(C#N)ccc2Cl)c1-c1ccc(F)cc1F [compound 291]	98%	0%	99%	0%	0%	85%	43%
Cc1nn(C)c(Nc2c(F)cc(F)cc2Cl)c1-c1c(F)cccc1Cl [compound 298]	100%	87%	100%	0%	93%	100%	100%
Cc1nn(C)c(Nc2c(F)cc(F)cc2F)c1-c1c(F)cccc1F [compound 300]	100%	82%	100%	9%	99%	99%	100%
Cc1nn(C)c(Nc2c(F)cc(C#N)cc2F)c1-c1c(F)cccc1F [compound 301]	100%	87%	99%	0%	87%	98%	99%
